From patent US6620822B1, “Fungicidal combinations of active substance” (priority 1999, dated 2003) come the findings set out here.

Assay type in all cases: in vivo
One test concerns Phytophthora infestans. The conditions noted are these: tomato, protective, single active compound, application rate 5 g/ha, evaluation 3 days after inoculation.
In the next test the test system is Sphaerotheca fuliginea. Put plainly: Sphaerotheca test (cucumber)/protective. Conditions: protective, single active compound, evaluation 10 days after inoculation.
Test [1] deals with Erysiphe graminis f.sp. hordei. The test is described as follows: Erysiphe test (barley)/curative. Conditions: curative, single active compound, evaluation 7 days after inoculation.

For `Fc1ccc(Oc2ccnc3cc(Cl)cc(Cl)c23)cc1` [(I), 5,7-dichloro-4-(4-fluoro-phenoxy)-quinoline], the Efficacy in % in the test with Phytophthora infestans is listed as 4%; in the test with Sphaerotheca fuliginea (application rate 5 g/ha) it was 57%; in the test with Sphaerotheca fuliginea (application rate 10 g/ha) it was 63%; in test [1] (application rate 6.25 g/ha) it was 43%; in test [1] (application rate 25 g/ha) it was 57%.

Regarding `Cc1ccc(N(SC(F)(Cl)Cl)S(=O)(=O)N(C)C)cc1` [(III), N-dichloro-fluoro-methylthio-N′,N′-dimethyl-N-p-tolylsulfamide], the Efficacy in % with Sphaerotheca fuliginea (application rate 50 g/ha) came to 0%.

Turning to `CC(C)(C)C(O)C(Oc1ccc(Cl)cc1)n1cncn1` (stereo not drawn) [(IIa), 1-(4-chloro-phenoxy)-3,3-dimethyl-1-(1,2,4-triazol-1-yl)-butan-2-ol], the Efficacy in % with Sphaerotheca fuliginea (application rate 5 g/ha) turned out to be 63%; in test [1] (application rate 25 g/ha) it was 93%.

In the case of `CC(C)(C)C(O)C(Oc1ccc(-c2ccccc2)cc1)n1cncn1` (stereo not drawn) [(IIb), 1-(4-phenyl-phenoxy)-3,3-dimethyl-1-(1,2,4-triazol-1-yl)-butan-2-ol], in the test on Sphaerotheca fuliginea (application rate 10 g/ha), the Efficacy in % is 27%.

Compound `CC1CNC(=S)[S][Zn][S]C(=S)N1` (stereo not drawn) [(IV), zinc propylene-1,2-bis-(dithiocarbamidate)] showed an Efficacy in % with Sphaerotheca fuliginea (application rate 50 g/ha) of 0%.

Regarding `CC1(C(=O)Nc2ccc(O)c(Cl)c2Cl)CCCCC1` [(V)], the Efficacy in % in the test with Sphaerotheca fuliginea (application rate 10 g/ha) stood at 0%.

Take `Cc1ccc(C(C)NC(=O)C(NC(=O)OC(C)C)C(C)C)cc1` (stereo not drawn) [(VI)]: the Efficacy in % with Sphaerotheca fuliginea (application rate 10 g/ha) came to 0%.
